# Data from patent US20130296412A1, “Artemisinin-Like Derivatives with Cytotoxic and Anti-Angiogenic Properties” (DAFRA PHARMA N.V., priority 2010, published 2013).
# Read-outs that look alike come from different tables or passages of the source.
# Assays:
# [1] = target: P-glycoprotein (P-gp) (Homo sapiens, UniProt P08183); assay: Calcein-AM assay with flow cytometry in CEM/ADR5000 cells; details: for EC max (intracellular calcein fluorescence compared to untreated controls) / EC50: CEM/ADR5000 cells, flow cytometry; for EC50: read-out: EC50 calcein-AM assay
# Chain of P-glycoprotein (P-gp) (P08183 whole entry): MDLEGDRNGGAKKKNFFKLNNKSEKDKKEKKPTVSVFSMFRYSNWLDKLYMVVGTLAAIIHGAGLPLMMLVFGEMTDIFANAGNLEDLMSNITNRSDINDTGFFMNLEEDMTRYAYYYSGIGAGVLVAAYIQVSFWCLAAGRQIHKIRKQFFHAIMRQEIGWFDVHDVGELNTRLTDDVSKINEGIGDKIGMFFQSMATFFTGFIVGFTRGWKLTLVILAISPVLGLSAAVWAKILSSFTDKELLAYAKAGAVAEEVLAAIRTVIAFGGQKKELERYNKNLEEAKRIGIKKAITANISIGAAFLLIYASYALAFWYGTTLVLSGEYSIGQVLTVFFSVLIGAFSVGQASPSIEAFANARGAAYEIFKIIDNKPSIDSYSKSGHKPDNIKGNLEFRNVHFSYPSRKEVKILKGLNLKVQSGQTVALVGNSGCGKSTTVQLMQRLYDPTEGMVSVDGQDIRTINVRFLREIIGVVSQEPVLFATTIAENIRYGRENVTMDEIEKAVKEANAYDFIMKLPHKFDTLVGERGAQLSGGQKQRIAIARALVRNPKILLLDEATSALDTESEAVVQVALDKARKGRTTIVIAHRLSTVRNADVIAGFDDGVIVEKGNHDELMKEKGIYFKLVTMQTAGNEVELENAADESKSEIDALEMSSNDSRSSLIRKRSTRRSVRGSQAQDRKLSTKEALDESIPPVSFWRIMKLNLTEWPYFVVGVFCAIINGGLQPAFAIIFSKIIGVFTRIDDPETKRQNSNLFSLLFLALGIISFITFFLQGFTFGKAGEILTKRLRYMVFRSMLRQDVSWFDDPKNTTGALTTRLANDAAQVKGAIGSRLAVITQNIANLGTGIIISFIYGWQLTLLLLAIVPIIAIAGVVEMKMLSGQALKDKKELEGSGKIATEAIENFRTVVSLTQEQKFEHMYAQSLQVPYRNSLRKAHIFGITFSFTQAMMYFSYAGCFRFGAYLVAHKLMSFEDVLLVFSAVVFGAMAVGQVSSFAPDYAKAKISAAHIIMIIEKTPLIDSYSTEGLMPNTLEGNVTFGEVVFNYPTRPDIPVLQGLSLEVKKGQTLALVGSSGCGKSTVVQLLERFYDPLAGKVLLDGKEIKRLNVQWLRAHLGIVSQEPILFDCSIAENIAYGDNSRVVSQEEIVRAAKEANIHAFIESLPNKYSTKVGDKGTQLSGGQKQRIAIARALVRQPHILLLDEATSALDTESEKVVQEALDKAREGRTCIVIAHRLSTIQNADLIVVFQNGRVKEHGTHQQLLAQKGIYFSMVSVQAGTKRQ
# Procedure: The intracellular accumulation of calcein inside the cells is measured by using FACS analysis. The points indicate mean values of fluorescent effect, vertical lines show standard error calculated on the base of two independent experiment replicates. The effect corresponds to a control of cells which were treated only with calcein.
# Test compounds were dissolved in DMSO as stock solutions and further dilutions were made with DMEM/HAM's F12 1:1 (Biochrom). […] A range of concentrations of test compound in a volume of 300-600 μL cell suspension were added, followed by a 15 min incubation at 37° C. Calcein-AM (300 μL) (MoBiTec, Göttingen, Germany) in DMEM/HAM's F12 1:1 was added to a final concentration of 1 μM and incubated for 30 min at 37° C.
# For the calcein-AM assay using flow cytometry, the cell density of suspensions in DMEM/Ham's F12 1:1 was 2.5×10^7 cells/ml.
# Gating on forward and side scatter in concert with propidium iodide staining allowed distinguishing live endothelial cells.
# Twenty thousand cells were sorted in each run, and data were processed and analyzed with CellQuest (Franklin Lakes, N.J., USA). All fluorescence signals were corrected for background fluorescence. Calcein-AM auto-hydrolysis was measured in control samples (n=6) without cells.
# [2] = tested on: CCRF-CEM leukemia cells; assay: XTT cytotoxicity assay, drug-sensitive cells; assay type: cell-based, human
# Procedure: (§1) Multidrug-resistant, P-glycoprotein-overexpressing CEM/ADR5000 cells and their parental, drug-sensitive counterpart, CCRF-CEM cells were used. The cell lines were provided by Dr. Daniel Steinbach (University of Ulm, Ulm, Germany).
# (§2) Doxorubicin resistance of CEM/ADR5000 was maintained as described. […] The cell lines were maintained in RPMI medium (Life Technologies) supplemented with 10% FCS in a humidified 7% CO2 atmosphere at 37° C. Cells were passaged twice weekly. All experiments were done with cells in the logarithmic growth
# (§3) Cytotoxicity was assessed using the 2,3-bis[2-methoxy-4-nitro-5-sulfophenyl]-2H-tetrazolium-5-carboxanilide inner salt (XTT) assay kit (Roche, Indianapolis, Ind.), which measures the metabolic activity of viable cells. Toxicity of compounds was determined with the Cell Proliferation Kit II (Roche Diagnostics, Mannheim, Germany), according to the manufacturer's instructions.
# Fresh stock solutions of each compound were prepared in DMSO at a concentration of 100 mM, and a dilution series was prepared in DMEM. Cells were suspended at a final concentration of 1×10^5 cells/ml, and […] were aliquoted per well into a 96-well culture plate (Costar, Corning, USA). Marginal wells were filled with 100 μL of media to minimize evaporation. A row of wells with cells was left untreated and another row of wells with cells was treated with 1 μL DMSO, the latter serving as a solvent control. All studies were performed in duplicate, in a range of concentrations, and in two independent experiments with different batches of cells.
# (§4) The ligand binding module of Sigma plot software (version 10.0) was used for analysis.
# (§5) All compounds were tested both towards drug-sensitive CCRF-CEM leukemia cells and their multidrug-resistant subline, CEM/ADR5000.
# [3] = tested on: CEM/ADR5000 leukemia cells (P-glycoprotein-overexpressing); assay: XTT cytotoxicity assay, multidrug-resistant cells; assay type: cell-based, human; details: for Degree of resistance: CEM/ADR5000 versus CCRF-CEM
# Procedure: as §1, §2, §3
# Fresh stock solutions of each compound were prepared in DMSO at a concentration of 100 mM, and a dilution series was prepared in DMEM. […] Marginal wells were filled with 100 μL of media to minimize evaporation. A row of wells with cells was left untreated and another row of wells with cells was treated with 1 μL DMSO, the latter serving as a solvent control. All studies were performed in duplicate, in a range of concentrations, and in two independent experiments with different batches of cells.
# as §4, §5
# [4] = tested on: zebrafish embryos; assay: Tg(fli1:EGFP) zebrafish embryo in vivo angiogenesis assay; details: for Anti-angiogenic effect (in words): zebrafish embryos, concentration range; for Concentration at which intersomitic vessel (ISV) formation was suppressed: as low as, toxicity evident above
# Procedure: Tg(fli1:EGFP) zebrafish, which express enhanced green fluorescent protein (GFP) in their endothelial cells, were used as an in vivo model for angiogenesis. At 20 hours post-fertilization (hpf), zebrafish embryos (10 per well/condition) were bathed in fish media, containing a concentration range of each of the compounds or control. Compounds had been dissolved as stock solutions in DMSO, stored at room temperature, and serially diluted in fish media prior to use. The anti-angiogenic tyrosinase kinase inhibitor SU5416 (Pfizer), and a vehicle-alone control containing the maximum concentration of DMSO were used as controls in all experiments.
# In the first sets of experiments, a broad range of concentrations were used to identify the maximum tolerable dose, based on toxicity to the embryos, visualized directly by light microscopy. Subsequent experiments were performed a minimum of two times. Live analyses of the embryos were performed under light and fluorescence microscopy at 28 hpf and 48 hpf to monitor viability, overall morphology, and pattern of swimming. Angiogenesis was evaluated visually by fluorescence microscopy.
# The developmental growth and patterning of the dorsal aorta, posterior cardinal vein, intersomitic vessels (ISV), and vascular plexus (VP) were monitored, as was the heart rate, and blood flow.
# Eight compounds (4, 7, 8, 9, 10, 11, 12 and 15) were compared to artesunate for their anti-angiogenic potential using an in vivo zebrafish embryo model system (Table III blow). DMSO at concentrations of 0.5, 1, and 2% was used as vehicle control. No effects were observed on overall morphology, heart rate, blood flow, or angiogenesis in control embryos. The anti-angiogenic agent SU5416 was used as a positive control.
# [5] = tested on: HUVEC cells; assay: VEGF-induced HUVEC proliferation/viability assay (WST1); assay type: cell-based, human; details: 30 ng/ml VEGF165, 0.5-100 μM, 96 hrs
# Procedure: Single donor HUVEC cells were purchased from Lonza (Breda, Netherlands). Cells were seeded at 5,000 cells per well in 96-well microtiterplates in EGM-2EV medium (Invitrogen). Upon adherence the cells were gently washed twice with PBS and starved overnight in EGM-2EV medium with reduced FBS content (0.1%; starvation medium).
# After 96 hrs, cell growth was quantified using the WST1 Rapid cell proliferation kit (Calbiochem), and was expressed in percentage of the control value (VEGF alone). Experiments were carried out in triplets.
# To further evaluate the anti-angiogenic potential of the present novel compounds, proliferation and survival of human umbilical vein endothelial cells (HUVECs) treated with VEGF and two compounds that were very active in the zebrafish model were assayed.
# [6] = tested on: P-gp expressed in porcine capillaries; assay: Transport of NBD-CSA into porcine brain capillary lumens (confocal microscopy); assay type: cell-based
# From the text: Luminal P-gp was inhibited by a well-known selective P-gylcoprotein inhibitor, PSC-833.
# [7] = Homo sapiens, ADR5000, read-out: IC50 CEM/ADR5000
# [8] = multidrug-resistant CEM/ADR5000 cells, XTT, read-out: IC50 CEM/ADR5000
smiles,measurement,setting,value
"C[C@@H]1CC[C@H]2[C@@H](C)C(=O)O[C@@H]3O[C@@]4(C)CC[C@@H]1[C@]32OO4 [Compound 1, artemisinin]",P-gp inhibition judged by calcein fluorescence,"[1]; CCRF-CEM and CEM/ADR5000 cells, FIG. 5",do not act as P-gp inhibitors
same,EC max (intracellular calcein fluorescence compared to untreated controls),[1],114.1 ± 2.85^ %
same,IC50,[2]; Homo sapiens,148 ± 16.6 µM
same,IC50,[3]; [7],94.9 ± 30.5 µM
"C[C@@H]1CC[C@H]2[C@@H](C)CO[C@@H]3O[C@@]4(C)CC[C@@H]1[C@]32OO4 [Compound 3, Deoxoartemisinin]",IC50,[2]; Homo sapiens,241 ± 50.7 µM
same,Degree of resistance,[3],0.49
same,IC50,[3]; [7],117 ± 8.2 µM
"CC1=CO[C@@H]2O[C@@]3(C)CC[C@H]4[C@H](C)CC[C@@H]1[C@@]24OO3 [Compound 4, Anhydrodihydroartemisinin]",Dead = number of dead embryos up to 48 hpf,"[4]; 50 μg/ml, N = 10 embryos",2
same,Vasc. Defects = number of surviving embryos with vascular defects,"[4]; 50 μg/ml, N = 10 embryos",0
same,Dead = number of dead embryos up to 48 hpf,"[4]; 75 μg/ml, N = 10 embryos",5
same,Other defects observed,"[4]; 75 μg/ml, N = 10 embryos","B, E"
same,Vasc. Defects = number of surviving embryos with vascular defects,"[4]; 75 μg/ml, N = 10 embryos",0
same,IC50,[2]; Homo sapiens,83.4 ± 7.51 µM
same,IC50,[3]; [7],33.6 ± 0.68 µM
"CC(=O)OC1O[C@@H]2O[C@@]3(C)CC[C@H]4[C@H](C)CCC([C@H]1C)[C@@]24OO3 (some centres unmarked) [Compound 7, 10-Dihydroartemisinyl acetate]",Anti-angiogenic effect (in words),[4],dose-dependent anti-angiogenic effects
same,Inhibition of proliferation and survival of HUVECs,[5],inhibited the proliferation and survival of HUVECs significantly stronger than artemisinin
same,Degree of resistance,[3],12.83
"C[C@H]1C(OC(=O)C(Cl)Cl)O[C@@H]2O[C@@]3(C)CC[C@H]4[C@H](C)CCC1[C@@]24OO3 (some centres unmarked) [Compound 8, 10-Dihydroartemisinyl 2′,2′-Dichloroacetate]",Anti-angiogenic effect (in words),[4],dose-dependent anti-angiogenic effects
same,Inhibition of luminal P-gp (NBD-CSA in capillary lumen),[6],almost empty lumen
"CCCC(=O)OC1O[C@@H]2O[C@@]3(C)CC[C@H]4[C@H](C)CCC([C@H]1C)[C@@]24OO3 (some centres unmarked) [Compound 9, 10-Dihydroartemisinyl Butyrate]",Dead = number of dead embryos up to 48 hpf,"[4]; 25 μg/ml, N = 30 embryos",17
same,Concentration at which intersomitic vessel (ISV) formation was suppressed,[4],1 µg/mL
same,Anti-angiogenic effect (in words),[4],dose-dependent anti-angiogenic effects
same,Degree of resistance,[3],0.51
CC(C)C(=O)OC1O[C@@H]2O[C@@]3(C)CC[C@H]4[C@H](C)CCC([C@H]1C)[C@@]24OO3 (some centres unmarked) [Compound 10],Anti-angiogenic effect (in words),[4],dose-dependent anti-angiogenic effects
same,Inhibition of proliferation and survival of HUVECs,[5],inhibited the proliferation and survival of HUVECs significantly stronger than artemisinin
same,Degree of resistance,[3],22.46
"CCCC(CCC)C(=O)OC1O[C@@H]2O[C@@]3(C)CC[C@H]4[C@H](C)CCC([C@H]1C)[C@@]24OO3 (some centres unmarked) [Compound 11, 10-Dihydroartemisinyl 2′-Propylpentanoate]",Dead = number of dead embryos up to 48 hpf,"[4]; 10 μg/ml, N = 30 embryos",22
same,Concentration at which intersomitic vessel (ISV) formation was suppressed,[4],1 µg/mL
same,Anti-angiogenic effect (in words),[4],dose-dependent anti-angiogenic effects
same,Degree of resistance,[3],1.23
"C[C@H]1C(OC(=O)C(C)(C)C)O[C@@H]2O[C@@]3(C)CC[C@H]4[C@H](C)CCC1[C@@]24OO3 (some centres unmarked) [Compound 12, 10-Dihydroartemisinyl 2′,2′-Dimethylpropianate]",Dead = number of dead embryos up to 48 hpf,"[4]; 1.0 μg/ml, N = 10 embryos",0
same,Anti-angiogenic effect (in words),[4],a specific anti-angiogenic effect was not observed
same,Toxicity to embryos (in words),"[4]; zebrafish, in vivo",the most toxic at comparable doses
same,Degree of resistance,[3],2.65
"C[C@H]1C(OC(=O)c2ccccc2)O[C@@H]2O[C@@]3(C)CC[C@H]4[C@H](C)CCC1[C@@]24OO3 (some centres unmarked) [Compound 13, 10-dihydroartemisinyl benzoate]",Degree of resistance,[3],7.79
C[C@H]1C(OC(=O)N(C)C)O[C@@H]2O[C@@]3(C)CC[C@H]4[C@H](C)CCC1[C@@]24OO3 (some centres unmarked) [Compound 14],Degree of resistance,[3],19.76
"CCC(C)OC1OC2OC3(C)CCC4C(C)CCC(C1C)C24OO3 (centres unmarked) [Compound 15, 10-(2′-Butyloxy)Dihydroartemisinin]",EC max (intracellular calcein fluorescence compared to untreated controls),[1],1180 ± 178.7%
same,EC50,[1],61.8 ± 9.62 µM
same,Dead = number of dead embryos up to 48 hpf,"[4]; 1.0 μg/ml, N = 10 embryos",0
same,Vasc. Defects = number of surviving embryos with vascular defects,"[4]; 1.0 μg/ml, N = 10 embryos",0
same,Dead = number of dead embryos up to 48 hpf,"[4]; 10 μg/ml, N = 10 embryos",1
same,Vasc. Defects = number of surviving embryos with vascular defects,"[4]; 10 μg/ml, N = 10 embryos",0
same,Dead = number of dead embryos up to 48 hpf,"[4]; 25 μg/ml, N = 10 embryos",0
same,Vasc. Defects = number of surviving embryos with vascular defects,"[4]; 25 μg/ml, N = 10 embryos",0
same,Inhibition of luminal P-gp (NBD-CSA in capillary lumen),[6],almost empty lumen
same,IC50,[2],16.7 ± 7.34 µM
same,Degree of resistance,[3],0.47
same,IC50,[3]; [8],7.96 ± 3.76 µM
"CC1CCC2C(C)C(SCCN)OC3OC4(C)CCC1C32OO4 (centres unmarked) [Compound 16, 10-Dihydroartemisinyl Thioethylamine]",EC max (intracellular calcein fluorescence compared to untreated controls),[1],1011 ± 106.3%
same,EC50,[1],27.2 ± 4.69 µM
same,IC50,[2],0.86 ± 0.19 µM
same,Degree of resistance,[3],3.88
same,IC50,[3]; [8],3.34 ± 0.64 µM
"C/C=C/C[C@@H](C)C(=O)[C@H]1C(=O)N[C@@H](C(C)C)C(=O)N(C)CC(=O)N(C)[C@@H](CC(C)C)C(=O)N[C@@H](C(C)C)C(=O)N(C)[C@@H](CC(C)C)C(=O)N[C@@H](C)C(=O)N[C@H](C)C(=O)N(C)[C@@H](CC(C)C)C(=O)N(C)[C@@H](CC(C)C)C(=O)N(C)[C@@H](C(C)C)C(=O)N1C [PSC-833, reference compound]",Inhibition of luminal P-gp (NBD-CSA in capillary lumen),[6],inhibited
"Cc1cc(C)c(/C=C2\C(=O)Nc3ccccc32)[nH]1 [SU5416, reference compound]",Formation of intersomitic vessels (ISVs) at 28 hpf,"[4]; 10 μg/ml, 28 hpf",completely blocked
same,ISV sprouting at 48 hpf compared to control embryos,"[4]; 10 μg/ml, 48 hpf",sprouted only minimally
